The record followed here is patent publication US11453703B2, “Heterotandem bicyclic peptide complexes” (BicycleTX Limited, priority 2018, dated 2022).

For this data set, the target named is CD137 (Homo sapiens, UniProt Q07011). Description: CD137 reporter assay, co-culture with EphA2 tumour cells. Also noted: host or cells: Jurkat reporter cells. Type of data set: cell-based. The settings on record: tumour target EphA2, co-culture with PC3, 6 h. As to the method:
Culture medium referred to as R1 media is prepared by adding 1% FBS to RPMI-1640 (component of Promega kit CS196005). Serial dilutions of test articles in R1 are prepared in a sterile 96 well-plate. Use 25 μl per well of test articles or R1 (as a background control) to designated wells in white cell culture plate. Tumour cells* are harvested and resuspended at a concentration of 400,000 cells/mL in R1 media. Twenty five (25) μL/well tumour cells are used in white cell culture plate. Jurkat cells (Promega kit CS196005, 0.5 mL) are thawed in the water bath and then added to 5 ml pre-warmed R1 medium. Twenty five (25) μL/well Jurkat cells are used in white cell culture plate. Incubate the cells and test articles for 6h at 37° C., 5% CO2. At the end of 6 h, add 75 μl/well Bio-Glo™ (Promega) and incubate for 10 min before reading luminescence in a plate reader (Clariostar, BMG). The fold change relative to cells (Jurkat cells+Cell line used in co-culture) is calculated and plotted in GraphPad Prism as log(agonist) vs response to determine EC50 (nM) and Fold Induction over background (Max)
Background: Reporter assays use an easily measured gene product as a stand-in for the process of interest.

Starred links: 1 amine or outer side, 2 acyl side, 3 side chain; linkers in the order of their positions; H or OH if unused. Positions of bridges follow the written chain, without caps; N, C: chain ends. Non-standard residues stand in square brackets, D forms with d. Residues, ends and D or L forms follow the SMILES beside them. Chains are numbered I, II in the order given. TATA = O=C(CC[*:1])N1CN(C(=O)CC[*:2])CN(C(=O)CC[*:3])C1; X2 = O=C(CCOCCOCCOCCOCCOCCn1cc(CCC(=O)[*:2])nn1)[*:1]; Hyp = O=C(O)[C@@H]1C[C@@H](O)CN1; hArg = N=C(N)NCCCC[C@H](N)C(=O)O; tBuAla = CC(C)(C)C[C@H](N)C(=O)O; Nle = CCCC[C@H](N)C(=O)O

Sequence of CD137 (Q07011 24-255): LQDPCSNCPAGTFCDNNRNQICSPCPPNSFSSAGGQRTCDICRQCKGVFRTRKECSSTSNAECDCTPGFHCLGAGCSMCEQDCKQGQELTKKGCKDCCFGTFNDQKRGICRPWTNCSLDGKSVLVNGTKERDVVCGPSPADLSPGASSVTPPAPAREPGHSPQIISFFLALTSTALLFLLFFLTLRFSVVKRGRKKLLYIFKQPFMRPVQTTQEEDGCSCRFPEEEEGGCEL

With `CCCC[C@@H]1NC(=O)[C@H](Cc2ccc(O)cc2)NC(=O)[C@@H]2CCCN2C(=O)[C@H](CC(=O)O)NC(=O)[C@H](C)NC(=O)[C@H](Cc2ccccc2)NC(=O)[C@@H]2CSCCC(=O)N3CN(CN(C3)C(=O)CCSC[C@@H](C(=O)N[C@@H](C)C(N)=O)NC1=O)C(=O)CCSC[C@H](NC(C)=O)C(=O)N[C@@H](CC(C)(C)C)C(=O)N1CCC[C@H]1C(=O)N[C@@H](CCC(=O)O)C(=O)N[C@H](CCCCNC(=O)CCOCCOCCOCCOCCOCCOCCOCCOCCOCCOCCOCCOCCn1cc(CCC(=O)NCCC(=O)N(C)CC(=O)N(C)CC(=O)N(C)CC(=O)N(C)CC(=O)N(C)CC(=O)N(C)CC(=O)N(C)CC(=O)N(C)CC(=O)N(C)CC(=O)N(C)CC(=O)N[C@@H](C)C(=O)N[C@@H](CCCCNC(=N)N)C(=O)N[C@@H](CC(=O)O)C(=O)N[C@H]3CSCCC(=O)N4CN5CN(C4)C(=O)CCSC[C@H](NC(=O)[C@H](CC(C)C)NC(=O)[C@@H]4CCCN4C(=O)[C@H](CC(N)=O)NC(=O)[C@H](C(C)C)NC(=O)[C@H](CC(C)C)NC(=O)[C@@H]4C[C@@H](O)CN4C3=O)C(=O)N[C@@H](CC(C)C)C(=O)N[C@@H](Cc3c[nH]cn3)C(=O)N3CCC[C@H]3C(=O)N[C@H](CC(=O)O)C(=O)N[C@@H](Cc3c[nH]c4ccccc34)C(=O)N[C@@H](CCCCNC(=N)N)C(=O)N[C@H](C(N)=O)CSCCC5=O)nn1)C(=O)N1CCC[C@H]1C(=O)N[C@@H](Cc1ccc(O)cc1)C(=O)N2` [BCY10570], a half-maximal response (EC50) required 0.41 nM and the “Fold Induction over Background” value came to 38 fold.
On the same counts, the results for `CCCC[C@@H]1NC(=O)[C@H](Cc2ccc(O)cc2)NC(=O)[C@@H]2CCCN2C(=O)[C@H](CC(=O)O)NC(=O)[C@H](C)NC(=O)[C@H](Cc2ccccc2)NC(=O)[C@@H]2CSCCC(=O)N3CN(CN(C3)C(=O)CCSC[C@@H](C(=O)N[C@@H](C)C(N)=O)NC1=O)C(=O)CCSC[C@H](NC(C)=O)C(=O)N[C@@H](CC(C)(C)C)C(=O)N1CCC[C@H]1C(=O)N[C@@H](CCC(=O)O)C(=O)N[C@H](CCCCNC(=O)CCc1cn(CCOCCOCCOCCOCCOCCC(=O)N[C@@H](C)C(=O)N[C@@H](CCCCNC(=N)N)C(=O)N[C@@H](CC(=O)O)C(=O)N[C@H]3CSCCC(=O)N4CN5CN(C4)C(=O)CCSC[C@H](NC(=O)[C@H](CC(C)C)NC(=O)[C@@H]4CCCN4C(=O)[C@H](CC(N)=O)NC(=O)[C@H](C(C)C)NC(=O)[C@H](CC(C)C)NC(=O)[C@@H]4C[C@@H](O)CN4C3=O)C(=O)N[C@@H](CC(C)C)C(=O)N[C@@H](Cc3c[nH]cn3)C(=O)N3CCC[C@H]3C(=O)N[C@H](CC(=O)O)C(=O)N[C@@H](Cc3c[nH]c4ccccc34)C(=O)N[C@@H](CCCCNC(=N)N)C(=O)N[C@H](C(N)=O)CSCCC5=O)nn1)C(=O)N1CCC[C@H]1C(=O)N[C@@H](Cc1ccc(O)cc1)C(=O)N2` [BCY10575] (I: A[hArg]DC[Hyp]LVNPLCLHP[dD]W[hArg]C-NH2 / II: Ac-C[tBuAla]PE[dK]PYCFADPY[Nle]CA-NH2; linker I:4-I:11-I:18, II:1-II:8-II:15 via TATA; linker I:N-II:5 via X2) are 0.62 nM and 38 fold.
